We go through 2 molecules from PMC5778160, “Functional genomics analysis reveals the biosynthesis pathways of important cellular components (alginate and fucoidan) of Saccharina” (Current Genetics, 2017).

Series [1] concerns T1, EsiGMD2.
T1 construct: gene GMD2; synthesized gene, pET32a, E. coli BL21(DE3), His-resin purified
The series is described as follows: enzyme kinetics (GDP-mannose dehydrogenase activity). Type of series: biochemical, Ectocarpus siliculosus. Particulars: read-out: NAD / k m; co-substrate GDP-mannose; optimum pH 8.75–9, 30–37 °C; unit as in table header, probably a misprint for μM; heading: NAD / k m. From the text:
enzyme kinetics (GDP-mannose dehydrogenase activity) on EsiGMD2

The subject of series [2] is T2, EsiGMD3.
T2 construct: gene GMD3; synthesized gene, pET32a, E. coli BL21(DE3), His-resin purified
The description is as above. It counts as biochemical, Ectocarpus siliculosus. The settings on record: read-out: NAD / k m; co-substrate GDP-mannose; optimum pH 8.75, 30–37 °C; unit as in table header, probably a misprint for μM; heading: NAD / k m. The text has this:
enzyme kinetics (GDP-mannose dehydrogenase activity) on EsiGMD3

Substrate in series [3]: O=P(O)(O)O[C@H]1O[C@H](CO)[C@@H](O)[C@H](O)[C@@H]1O
The series is described as follows: enzyme kinetics, double reciprocal plot (phosphomannomutase activity). It counts as biochemical, Saccharina japonica. Particulars: optimum pH 7.4, 25 °C.

Substrate in series [4]: O=P(O)(O)O[C@H]1O[C@H](CO)[C@@H](O)[C@H](O)[C@H]1O
Description: enzyme kinetics, double reciprocal plot (phosphoglucomutase activity). Type of series: biochemical, Saccharina japonica. The settings on record: optimum pH 7.0, 30 °C.

As to `NC(=O)c1ccc[n+]([C@@H]2O[C@H](COP(=O)(O)OP(=O)(O)OC[C@H]3O[C@@H](n4cnc5c(N)ncnc54)[C@H](O)[C@@H]3O)[C@@H](O)[C@H]2O)c1` [NAD], the values for the Km in series [1] and in series [2] were 79.6 µM and 43.5 µM, respectively.

B1: SjaPMM (Saccharina japonica) (protein)
chain: MSVTKNPRIIALFDVDGTLTAARKEVLPDMVEFIKTLRERITIGVVGGSDLPKQKEQLGESVMEDYDYSFSQNGLVAYKAGELIGQQTISKHVGEENLKKIINWVLKYMSGIDIPVKRGTFIEFRTGMLNISPVGRNCSQEERDAFEQYDNVHKIRETMVAAMREEFADLNLTFSIGGQISFDLFPTGWDKTFCLQFLGEGTAEYDEIHFFGDKTFKGGNDNEIFESERTIGHTVTSPADTIQQCKELFFKD
notes: synthesized gene, pET32a, E. coli BL21(DE3), His-resin purified
Take B1: the Km in series [3] was 699.41 µM; in series [4], 41.04 µM.
